Calls of active or inactive are those of the source. No cut-off for these calls is given here.

Experiment [1] concerns Kluyveromyces marxianus. Kind of experiment: Antifungal activity against Candida kefyr ATCC 46764 at 1.5 ug/ml after 14 to 18 hrs. The following applies: read-out: IZ. It is filed as functional.
Experiment [2] has as its system Kluyveromyces marxianus. Kind of experiment: Antifungal activity against Candida kefyr ATCC 46764 at 0.5 ug/ml after 14 to 18 hrs. It is filed as functional. The following applies: read-out: IZ.
In experiment [3] the test system is Kluyveromyces marxianus. Description: Antifungal activity against Candida kefyr ATCC 46764 at 3 ug/ml after 14 to 18 hrs. It is filed as functional. The following applies: read-out: IZ.
The species entered for experiment [4] is Homo sapiens. Kind of experiment: Effect on […] level in plasma of transplant patient by MVista microbiological assay. Type of experiment: functional.
In experiment [5] the test system is Kluyveromyces marxianus. Description: Antifungal activity against Candida kefyr ATCC 46764 after 14 to 18 hrs. Type of experiment: functional, organism-based.

As to `C/C=C/C[C@@H](C)[C@@H](O)[C@H]1C(=O)N[C@@H](CC)C(=O)N(C)CC(=O)N(C)[C@@H](CC(C)C)C(=O)N[C@@H](C(C)C)C(=O)N(C)[C@@H](CC(C)C)C(=O)N[C@@H](C)C(=O)N[C@H](C)C(=O)N(C)[C@@H](CC(C)C)C(=O)N(C)[C@@H](CC(C)C)C(=O)N(C)[C@@H](C(C)C)C(=O)N1C` [CYCLOSPORINE], in experiment [1], the zone of inhibition at 1.5 µg/mL was determined as 20.5 mm. In experiment [2], the zone of inhibition at 0.5 µg/mL turned out to be 15.5 mm. The zone of inhibition at 3 µg/mL in experiment [3] was determined as 23.3 mm.

Take `C=CC[C@@H]1/C=C(\C)C[C@H](C)C[C@H](OC)[C@H]2O[C@@](O)(C(=O)C(=O)N3CCCC[C@H]3C(=O)O[C@H](/C(C)=C/[C@@H]3CC[C@@H](O)[C@H](OC)C3)[C@H](C)[C@@H](O)CC1=O)[C@H](C)C[C@@H]2OC` [TACROLIMUS ANHYDROUS]: in experiment [4], the Activity is 4.2 ng/mL. In addition, the result in experiment [5] was inactive.

With `CO[C@H]1C[C@@H]2CC[C@@H](C)[C@@](O)(O2)C(=O)C(=O)N2CCCC[C@H]2C(=O)O[C@H]([C@H](C)C[C@@H]2CC[C@@H](O)[C@H](OC)C2)CC(=O)[C@H](C)/C=C(\C)[C@@H](O)[C@@H](OC)C(=O)[C@H](C)C[C@H](C)/C=C/C=C/C=C/1C` [SIROLIMUS], in experiment [4], the Activity is 7.1 ng/mL.

Turning to `CC[C@@H]([C@H](C)O)n1ncn(-c2ccc(N3CCN(c4ccc(OC[C@@H]5CO[C@@](Cn6cncn6)(c6ccc(F)cc6F)C5)cc4)CC3)cc2)c1=O` [POSACONAZOLE], in experiment [1], the zone of inhibition at 1.5 µg/mL is 20.6 mm. For the same compound, the zone of inhibition at 0.5 µg/mL in experiment [2] stood at 16.5 mm. Moreover, the zone of inhibition at 3 µg/mL in experiment [3] came out at 23.2 mm.

Values taken from ChEMBL document CHEMBL1153557, “Effect of calcineurin inhibitors on posaconazole blood levels as measured by the MVista microbiological assay” (Antimicrob Agents Chemother, 2008).
